Test [1] has as its system A-375. Put plainly: MITF: Counter assay: A375 proliferation Measured in Cell-Based System Using Plate Reader - 2084-03_Inhibitor_Dose_DryPowder_Activity. [Related pubchem assays (depositor defined):AID488944]. Format: functional. To be noted: Homo sapiens.
Test [2] relates to A-375. Put plainly: A375 melanoma cell viability reduction, dose response, counter-screen for MITF modulator project, cherry-pick samples, set 2 (AID 540335). To be noted: Homo sapiens. It counts as functional, cell-based. (In general: A counterscreen serves to expose hits that act by an unwanted route or on another target.)
The target of test [3] is T1, CAAX prenyl protease 2 (Saccharomyces cerevisiae S288c, UniProt Q03530).
T1 sequence (Q03530 whole entry): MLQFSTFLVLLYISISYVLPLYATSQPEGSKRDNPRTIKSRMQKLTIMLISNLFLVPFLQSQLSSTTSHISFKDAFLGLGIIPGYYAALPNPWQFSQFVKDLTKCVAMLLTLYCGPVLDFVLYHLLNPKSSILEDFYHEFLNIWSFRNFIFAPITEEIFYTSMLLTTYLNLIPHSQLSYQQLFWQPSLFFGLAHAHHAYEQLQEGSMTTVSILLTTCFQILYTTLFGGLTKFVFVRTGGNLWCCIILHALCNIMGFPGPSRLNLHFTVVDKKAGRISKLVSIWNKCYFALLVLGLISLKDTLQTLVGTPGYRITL
Format: biochemical.

The next test concerns the target CAAX prenyl protease 1 (Saccharomyces cerevisiae S288c, UniProt P47154). Put plainly: Ste24 protease inhibitors, dose response, biochemical, S. cerevisiae, plate reader, cherry-pick (AID 488815).
Test [4] addresses CAAX prenyl protease 2 (Homo sapiens, UniProt Q9Y256). Put plainly: human Rce1 protease inhibitors, dose response, biochemical, yeast membranes, quenched-peptide fluorescence, cherry-pick (AID 588849).
Test [5] has as its target T2, Tyrosine-protein phosphatase non-receptor type 7 (Homo sapiens, UniProt P35236).
T2 sequence (P35236 whole entry): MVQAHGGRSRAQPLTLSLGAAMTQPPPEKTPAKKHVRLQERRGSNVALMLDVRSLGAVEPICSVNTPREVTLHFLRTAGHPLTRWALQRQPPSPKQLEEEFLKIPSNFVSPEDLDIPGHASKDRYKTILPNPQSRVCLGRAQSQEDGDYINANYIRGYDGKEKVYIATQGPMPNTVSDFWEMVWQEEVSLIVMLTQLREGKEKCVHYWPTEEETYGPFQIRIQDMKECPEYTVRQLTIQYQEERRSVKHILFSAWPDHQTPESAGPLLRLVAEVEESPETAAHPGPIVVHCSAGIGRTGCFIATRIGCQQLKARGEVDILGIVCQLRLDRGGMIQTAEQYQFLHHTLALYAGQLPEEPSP
It counts as functional.

In test [6] the target is Glyceraldehyde-3-phosphate dehydrogenase (Homo sapiens, UniProt P04406).
Test [7] concerns the target T3, Dual specificity protein phosphatase 6 (Rattus norvegicus, UniProt Q64346).
T3 sequence (Q64346 whole entry): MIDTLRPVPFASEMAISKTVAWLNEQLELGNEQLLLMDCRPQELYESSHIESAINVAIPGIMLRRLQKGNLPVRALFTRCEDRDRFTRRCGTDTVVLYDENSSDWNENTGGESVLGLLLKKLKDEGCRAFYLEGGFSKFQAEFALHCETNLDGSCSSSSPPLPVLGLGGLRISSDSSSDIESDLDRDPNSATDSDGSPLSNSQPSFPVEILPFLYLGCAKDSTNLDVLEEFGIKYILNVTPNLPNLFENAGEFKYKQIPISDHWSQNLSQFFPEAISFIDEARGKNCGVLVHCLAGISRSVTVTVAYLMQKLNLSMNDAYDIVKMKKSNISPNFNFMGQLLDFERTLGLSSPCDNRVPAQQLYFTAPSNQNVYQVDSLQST

The target in test [8] is T3, Dual specificity protein phosphatase 6. It counts as functional.
For test [9], the target named is T4, RNA-binding protein pos-1 (Caenorhabditis elegans, UniProt G5EF15).
T4 sequence (G5EF15 whole entry): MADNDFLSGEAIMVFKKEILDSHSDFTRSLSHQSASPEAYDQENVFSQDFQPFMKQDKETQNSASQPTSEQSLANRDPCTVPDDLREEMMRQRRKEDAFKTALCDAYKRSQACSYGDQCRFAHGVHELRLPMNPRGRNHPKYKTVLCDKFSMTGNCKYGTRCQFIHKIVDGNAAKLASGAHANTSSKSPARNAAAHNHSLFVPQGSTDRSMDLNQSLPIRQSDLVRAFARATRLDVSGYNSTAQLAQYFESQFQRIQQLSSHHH
As to the kind of experiment: inhibitors of POS-1/mex-3 RNA binding, dose response, biochemical, fluorescence polarization (AID 1964).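 Further: purified POS-1 fused to maltose binding protein made in E. coli; potency of compounds blocking POS-1 binding to fluorescent RNA.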 Background: Fluorescence polarisation rises when a labelled molecule tumbles more slowly, as on binding a larger partner.

For test [10], the target named is T5, Zinc finger protein mex-5 (Caenorhabditis elegans, UniProt Q9XUB2).
T5 sequence (Q9XUB2 whole entry): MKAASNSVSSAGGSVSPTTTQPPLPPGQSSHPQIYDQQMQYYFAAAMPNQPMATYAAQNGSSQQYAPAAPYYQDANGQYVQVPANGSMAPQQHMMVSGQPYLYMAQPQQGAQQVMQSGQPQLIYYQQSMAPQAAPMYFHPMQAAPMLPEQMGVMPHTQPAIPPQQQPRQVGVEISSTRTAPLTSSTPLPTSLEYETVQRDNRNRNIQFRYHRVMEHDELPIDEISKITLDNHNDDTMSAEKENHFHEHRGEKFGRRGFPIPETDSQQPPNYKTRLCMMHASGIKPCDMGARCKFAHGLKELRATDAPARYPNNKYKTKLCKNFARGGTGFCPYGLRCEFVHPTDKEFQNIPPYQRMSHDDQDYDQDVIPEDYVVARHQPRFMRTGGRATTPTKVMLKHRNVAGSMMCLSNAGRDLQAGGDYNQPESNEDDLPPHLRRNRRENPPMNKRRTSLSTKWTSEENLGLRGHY
As to the kind of experiment: MEX-5/TCR-2 RNA interaction inhibitors, dose response, biochemical, C. elegans, fluorescence polarization (AID 1960).

Test [11] concerns the target T6, Endoribonuclease toxin MazF (Escherichia coli K-12, UniProt P0AE70).
T6 sequence (P0AE70 whole entry): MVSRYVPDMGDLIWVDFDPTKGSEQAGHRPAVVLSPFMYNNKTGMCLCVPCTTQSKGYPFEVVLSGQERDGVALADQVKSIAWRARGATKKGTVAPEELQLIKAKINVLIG
As to the kind of experiment: MazF toxin RNase activators, dose response, biochemical, fluorescence, single-stranded RNA substrate, uHTS hits (AID 588481). It counts as functional.

The target of test [12] is UDP-galactopyranose mutase (Mycobacterium tuberculosis, UniProt P9WIQ1). As to the kind of experiment: Inhibitors of Mycobacterium tuberculosis UDP-galactopyranose mutase (UGM) enzyme Measured in Biochemical System Using Plate Reader - 2105-02_Inhibitor_Dose_CherryPick_Activity. [Related pubchem assays (depositor defined):AID504439].
Test [13] concerns the target T6, Endoribonuclease toxin MazF. As to the kind of experiment: fluorescent RNA oligo signal without MazF, dose response, counter-screen for MazEF activator project, biochemical, fluorescence, single-stranded RNase substrate (AID 588502). It counts as functional.
Test [14] has as its target T7, Corticotropin-releasing factor receptor 2/Corticotropin-releasing factor-binding protein (Homo sapiens, UniProt P24387+Q13324).
T7 sequence (Q13324 whole entry): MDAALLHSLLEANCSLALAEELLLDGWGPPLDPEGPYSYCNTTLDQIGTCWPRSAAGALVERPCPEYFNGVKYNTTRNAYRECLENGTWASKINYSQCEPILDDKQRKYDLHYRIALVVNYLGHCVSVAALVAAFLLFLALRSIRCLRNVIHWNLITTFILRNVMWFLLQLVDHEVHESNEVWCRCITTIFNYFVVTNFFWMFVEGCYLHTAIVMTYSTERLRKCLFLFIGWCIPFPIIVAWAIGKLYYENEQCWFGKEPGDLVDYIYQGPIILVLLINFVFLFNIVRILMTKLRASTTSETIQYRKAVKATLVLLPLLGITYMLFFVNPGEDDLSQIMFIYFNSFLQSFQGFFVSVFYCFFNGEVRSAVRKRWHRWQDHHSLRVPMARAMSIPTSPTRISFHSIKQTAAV
T7 sequence (P24387 whole entry): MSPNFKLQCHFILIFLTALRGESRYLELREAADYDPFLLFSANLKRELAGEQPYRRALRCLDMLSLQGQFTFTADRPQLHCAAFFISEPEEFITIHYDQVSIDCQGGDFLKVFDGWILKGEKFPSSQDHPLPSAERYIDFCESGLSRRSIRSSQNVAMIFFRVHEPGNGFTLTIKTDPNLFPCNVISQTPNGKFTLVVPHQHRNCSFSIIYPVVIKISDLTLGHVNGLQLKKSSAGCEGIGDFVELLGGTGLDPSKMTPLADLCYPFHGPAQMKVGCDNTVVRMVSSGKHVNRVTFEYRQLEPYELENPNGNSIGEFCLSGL
Put plainly: activators of CRF receptor 2 with binding protein – uHTS hits, confirmation (AID 602473). To be noted: read-out: EC50_Mean. Format: functional.

Test [15] addresses T8, Short transient receptor potential channel 4 (Mus musculus, UniProt Q9QUQ5).
T8 sequence (Q9QUQ5 whole entry): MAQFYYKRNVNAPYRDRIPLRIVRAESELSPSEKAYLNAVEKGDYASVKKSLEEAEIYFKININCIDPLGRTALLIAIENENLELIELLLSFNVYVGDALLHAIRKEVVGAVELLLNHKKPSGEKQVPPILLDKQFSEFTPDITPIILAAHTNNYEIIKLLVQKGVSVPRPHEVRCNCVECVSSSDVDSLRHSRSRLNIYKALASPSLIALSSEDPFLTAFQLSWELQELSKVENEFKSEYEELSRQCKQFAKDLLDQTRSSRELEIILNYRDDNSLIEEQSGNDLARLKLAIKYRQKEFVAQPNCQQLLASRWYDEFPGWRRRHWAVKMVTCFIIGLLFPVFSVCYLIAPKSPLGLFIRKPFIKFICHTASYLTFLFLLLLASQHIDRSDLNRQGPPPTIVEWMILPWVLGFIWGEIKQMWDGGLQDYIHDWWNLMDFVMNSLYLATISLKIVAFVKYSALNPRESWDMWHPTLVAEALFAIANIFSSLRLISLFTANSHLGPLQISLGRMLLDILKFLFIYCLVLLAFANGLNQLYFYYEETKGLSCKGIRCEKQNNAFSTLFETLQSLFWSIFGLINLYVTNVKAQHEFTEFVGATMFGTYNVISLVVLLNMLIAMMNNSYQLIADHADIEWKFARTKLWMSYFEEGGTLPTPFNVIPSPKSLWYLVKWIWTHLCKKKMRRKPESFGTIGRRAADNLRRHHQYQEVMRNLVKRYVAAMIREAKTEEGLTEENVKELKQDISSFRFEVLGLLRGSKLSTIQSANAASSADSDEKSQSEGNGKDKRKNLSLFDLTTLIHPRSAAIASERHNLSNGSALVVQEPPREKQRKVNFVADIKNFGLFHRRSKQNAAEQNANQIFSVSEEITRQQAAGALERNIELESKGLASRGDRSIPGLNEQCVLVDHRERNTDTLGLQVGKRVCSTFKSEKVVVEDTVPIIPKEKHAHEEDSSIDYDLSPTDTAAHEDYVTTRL
As to the kind of experiment: mouse TRPC4 channel inhibitors, dose response, cell-based, HEK293 TRPC4/mu-opioid, Fluo-4 calcium (AID 434942).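 Further: potency of inhibitors blocking the TRPC4 calcium response.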 It counts as functional.

The target of test [16] is T8, Short transient receptor potential channel 4. Put plainly: mouse TRPC4 channel activators, dose response, cell-based, HEK293 TRPC4/mu-opioid, Fluo-4 calcium (AID 434937). Format: functional.
The test system of the next test is Jurkat. As to the kind of experiment: antigen receptor-induced NF-kB inhibitors, dose response, Jurkat, luciferase reporter, luminescence, B- and T-cell (AID 489004).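 Further: NF-kB luciferase reporter Jurkat cells stimulated with PMA plus ionomycin.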 Format: functional, cell-based. Particulars: Homo sapiens. For orientation: In a reporter assay the amount or activity of a reporter protein is the signal.
The nature of test [17]: cytotoxicity in HEK-293T NF-kB-Luc cells, dose response, cytotoxicity control for B/T-cell NF-kB inhibitor project, cell-based, uHTS hits (AID 489019).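 Further: IC50 reflects cytotoxicity as loss of cell viability.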 Format: functional.
In another test the test system is INS1. As to the kind of experiment: beta cell apoptosis inhibitors, cytokine rescue, dose response, luminescence, retest (AID 449756).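 Further: cell death triggered by IL-1 beta plus TNF-alpha plus IFN-gamma mixture; protective hits raise ATP signal compared with cytokine alone wells.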 Format: functional, cell-based. To be noted: Rattus norvegicus.
Test [18] in a line: inhibitors of Trypanosoma cruzi host-cell infection, confirmation, beta-gal luminescence, NIH3T3 host cells (AID 2630). Format: functional, cell-based. Particulars: Mus musculus.

The source made the active and inactive calls.

CAAX prenyl protease 1, sequence (P47154 whole entry): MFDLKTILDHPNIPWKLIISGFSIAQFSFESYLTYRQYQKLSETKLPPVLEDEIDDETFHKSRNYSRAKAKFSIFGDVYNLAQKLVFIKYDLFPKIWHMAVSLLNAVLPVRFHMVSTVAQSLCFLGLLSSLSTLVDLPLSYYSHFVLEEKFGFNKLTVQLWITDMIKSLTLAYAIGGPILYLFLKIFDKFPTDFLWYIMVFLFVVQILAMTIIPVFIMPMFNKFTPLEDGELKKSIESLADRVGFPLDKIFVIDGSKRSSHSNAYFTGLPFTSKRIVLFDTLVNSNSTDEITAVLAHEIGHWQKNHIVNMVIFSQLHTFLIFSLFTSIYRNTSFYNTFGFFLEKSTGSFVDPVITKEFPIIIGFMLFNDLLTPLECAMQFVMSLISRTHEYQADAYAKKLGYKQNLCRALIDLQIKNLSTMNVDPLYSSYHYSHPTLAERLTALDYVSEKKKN
CAAX prenyl protease 2 (Homo sapiens, UniProt Q9Y256), sequence (Q9Y256 whole entry): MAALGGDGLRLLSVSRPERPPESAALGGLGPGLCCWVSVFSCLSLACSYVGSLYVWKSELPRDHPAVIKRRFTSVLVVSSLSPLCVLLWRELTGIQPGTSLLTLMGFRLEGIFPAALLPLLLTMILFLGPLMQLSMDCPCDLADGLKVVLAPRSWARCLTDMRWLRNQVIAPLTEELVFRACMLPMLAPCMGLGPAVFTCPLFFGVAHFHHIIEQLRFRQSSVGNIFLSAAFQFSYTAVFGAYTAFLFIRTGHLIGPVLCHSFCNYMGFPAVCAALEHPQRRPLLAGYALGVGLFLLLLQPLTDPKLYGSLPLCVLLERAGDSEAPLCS
UDP-galactopyranose mutase, sequence (P9WIQ1 whole entry): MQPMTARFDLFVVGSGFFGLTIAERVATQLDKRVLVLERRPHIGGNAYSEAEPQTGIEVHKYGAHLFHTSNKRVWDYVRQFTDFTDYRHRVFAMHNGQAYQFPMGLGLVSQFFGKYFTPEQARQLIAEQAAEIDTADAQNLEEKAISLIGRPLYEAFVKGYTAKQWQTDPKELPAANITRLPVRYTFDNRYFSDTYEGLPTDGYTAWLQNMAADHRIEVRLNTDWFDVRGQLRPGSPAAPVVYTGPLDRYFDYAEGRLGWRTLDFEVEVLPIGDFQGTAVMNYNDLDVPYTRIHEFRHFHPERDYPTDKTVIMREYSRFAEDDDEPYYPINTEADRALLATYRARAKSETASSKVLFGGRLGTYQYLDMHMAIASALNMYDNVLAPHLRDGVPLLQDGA
Glyceraldehyde-3-phosphate dehydrogenase, sequence (P04406 whole entry): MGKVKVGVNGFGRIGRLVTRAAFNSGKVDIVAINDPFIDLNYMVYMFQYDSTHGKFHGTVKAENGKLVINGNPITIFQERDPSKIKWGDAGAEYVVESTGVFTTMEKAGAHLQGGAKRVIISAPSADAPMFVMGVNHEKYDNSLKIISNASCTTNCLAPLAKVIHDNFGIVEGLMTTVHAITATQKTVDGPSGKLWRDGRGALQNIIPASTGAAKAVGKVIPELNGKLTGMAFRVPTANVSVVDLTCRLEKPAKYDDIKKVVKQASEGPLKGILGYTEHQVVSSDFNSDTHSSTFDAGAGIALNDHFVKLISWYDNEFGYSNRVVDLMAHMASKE

As for `O=C(Nc1ccc2nn(-c3ccccc3)nc2c1)c1ccco1`, the AC50 in the test with A-375 [1] and in the test with A-375 [2] was > 35 µM (active) throughout.

For `CCOC(=O)c1[nH]c2ccc(OC)cc2c1NC(=O)CN1CCC2(CC1)OCCO2`, the AC50 (as a rule, the concentration giving half of the maximal activity seen) was 67.8 µM (active) at CAAX prenyl protease 2 [3], 6.79 µM (active) on CAAX prenyl protease 1 and 15.4 µM (active) at CAAX prenyl protease 2 [4].

Regarding `Cc1ccc(-n2c(=O)[nH]c(=O)n([C@H](C(N)=O)C(C)C)c2=O)cc1`, the IC50 (usually the concentration that gives 50% inhibition) in [5] is > 100 µM (not active); in test [6] it was > 100 µM (not active); in test [7] it was > 100 µM (inactive); in test [8], > 100 µM (inactive).

Consider `O=C(Nc1ccc(Cl)cc1)OCc1ccccn1`, for which the AC50 in the test on A-375 [1] and in the test on A-375 [2] was > 35 µM (active) in each case.

With `COc1ccc2nc3ccccc3nc2c1NC(=O)c1ccc(Cl)cc1Cl`, the EC50 was 3.15 µM (inconclusive) in [9]; 3.71 µM (inconclusive) in test [10]; > 99 µM (inactive) in test [11]; 27.6 µM (inactive) in [13]; 6.99 µM (active) in test [14]. The AC50 in [12] is 171 µM (active).

With `O=C(C[n+]1cc2ccccc2c2ccccc21)c1ccccc1`, the EC50 in test [15] was 3.76 µM (active); in [16], 4.22 µM (active). In addition, the concentration at half-maximal activity (AC50) on CAAX prenyl protease 2 [3] was 5.91 µM (active); at CAAX prenyl protease 1, 10.2 µM (active).

Consider `Cc1cc(Cl)c(S(=O)(=O)N2CCN(c3ccc(F)cc3)CC2)cc1OCC(=O)NC1CCCCC1`, for which the IC50 (in the test on Jurkat; in test [17]) was > 80 µM (inactive) each time. In the test on INS1, the AC50 is 4.82 µM (active).

Regarding `Cc1ccc(NC(=O)CCC(=O)N/N=C/c2ccco2)c(C)c1`, the EC50 in test [18] was 195 µM (inactive).

`O=S(=O)(O)c1cc2oc(-c3ccccc3)nc2c2ccccc12`: the AC50 on CAAX prenyl protease 2 [4] was 1.35 µM (active).
